Experiment [1] concerns guinea pig model of allergic conjunctivitis. Briefly: Guinea pig model of allergic conjunctivitis (ovalbumin). In kind it is in vivo, Hartley Guinea pigs. The procedure: A guinea pig model of allergic conjunctivitis is used to test the effect of topical administration of a DP2 receptor antagonist to the eye on the development of allergic conjunctivitis. Male Hartley Guinea pigs ages 4-8 weeks (300-500 grams) at the beginning of the experiment were sensitized by intraperitoneal injection of ovalbumin [0.5 ml of a 100 μg/ml solution in Imject Alum. An additional 0.5 ml of the ovalbumin (OVA) solution is injected subcutaneous in the proximity of the lymph nodes (Muise et al., 2002). Twenty one days after sensitization, guinea pigs received an ocular challenge. Briefly, animals were secured within a towel and placed in a lateral recumbent position. Ten microliters of saline or OVA (2.5% in Saline) was topically applied to each eye, followed by 2-3 manually forced blinks. This procedure is repeated again on day 23. Clinical scoring of redness (using a scale of 0-3), edema (using a scale of 0-3) and discharge (using a scale of 0-4) were evaluated 90 minutes after challenge on day 23. The itch/scratch response was observed and recorded (using a scale of 0-3) for the first 30 minutes after challenge on day 23. The DP2 receptor antagonist (compound 2; {2′-[(N-cyclopropanecarbonyl-N-ethyl-amino)-methyl]-6-methoxy-4′-trifluoromethyl-biphenyl-3-yl}-acetic acid) was administered on days 21-23 by topical application using the procedure described above in a concentration of 300 ng/eye in PBS vehicle. Oral administration was also evaluated by gavage of compound 2 (10 mg/kg) prepared in 0.5% Methylcellulose or water. The means±standard error of the mean were plotted and analyzed by one-way ANOVA using Graphpad Prizm.

The test system of experiment [2] is mouse model of ragweed-induced allergic conjunctivitis. Nature of the experiment: Mouse ragweed allergic conjunctivitis. The experiment is classed as in vivo. Conditions: topical 0.3% in PBS, three times daily, days 9-15, FIG. 5. The method, then:
A mouse model of ragweed-induced allergic conjunctivitis was used to test the efficacy of topical administration of a DP2 receptor antagonist to the eye on the development of allergic conjunctivitis. Compound 2 was evaluated in a mouse model of ocular allergy. In this model, a systemic sensitization with an allergen (Short Ragweed, SRW) was followed by topical challenge with the same allergen. For sensitization a suspension of 50 μg of short ragweed allergen (SRW, Greer, Lenoir, NC, USA) 25 μl of Aluminum Hydroxide (13 mg/ml, Sigma Aldrich) was injected into both hind rear footpads (Day 0). On days 9 through 15, topical treatment with compound 2 (0.3% in PBS), positive control (Prednisolone Acetate 1% in hypromellose), or vehicle control (PBS) was administered three times daily. Mice were dosed topically to the central cornea using a calibrated micropipette, with a 5 μL drop of treatment in each eye. On days 13 through 15 mice were challenged with topical doses of 1000 μg SRW suspension in 5 μl PBS in each eye. SRW was prepared fresh daily, and used within 3 hours of mixing, and mixed well before administration to ensure homogeneity. Thirty minutes after the final challenge (Day 15) clinical signs (discharge, lid swelling hyperemia, chemosis, and squinting) were evaluated using the aid of a dissecting microscope. A cumulative score was also recorded including all parameters measured with the exception of squinting.

The subject of experiment [3] is respiratory syncytial virus (RSV) eye infection. The experiment is classed as in vivo. Conditions: topical 60 ng/eye once daily, 14 days.
Experimental: A mouse model of respiratory syncytial virus (RSV) eye infection is used to test the effects of ocular application of DP2 receptor antagonist compound on RSV-induced ocular immunopathology (Bitko V, et al., J. Virol. 2007; 81(2):783-90; Bitko V, et al., Nat. Med. 2005; 11(1):50-5). Each mouse eye is topically treated with 60 ng DP2 receptor antagonist compound or vehicle (sterile saline) in a volume of 2 μl. The DP2 receptor antagonist compound is instilled 40 min after virus inoculum and then once daily over the entire duration of the protocol (14 days).
Instillation of virus and inhibitor in the eye. Female BALB/c mice, 6 to 8 weeks old, are purchased from Charles River Laboratories. […]
Ocular pathology. Ocular disease is evaluated with a slit lamp biomicroscope (Bitko V, et al., J. Virol. 2007; 81(2):783-90)15; Girgis et al., Invest. […] Pathology is scored on a scale of 0 to 5 as follows: 0=clear eye; 1=slight redness in the corners; 2=moderate redness and injection; 3=conjunctival and corneal injection with ciliary flush; 4=extensive injection, generally associated with some mucus; 5=most extensive injection, associated with mucus. Eyes are examined in a coded fashion with the reader unaware of the treatment given. The presence of gummy residue or mucin in the eyes is recorded. […]
The mark [4] stands for this setting: topical 300 ng/eye in PBS, days 21-23, scored 90 minutes after challenge on day 23, FIG. 3.
Where [5] appears, read: scored 30 min after final challenge (Day 15).

For the compound `CCN(Cc1cc(C(F)(F)F)ccc1-c1cc(CC(=O)O)ccc1OC)C(=O)C1CC1` [compound 2, {2′-[(N-cyclopropanecarbonyl-N-ethyl-amino)-methyl]-6-methoxy-4′-trifluoromethyl-biphenyl-3-yl}-acetic acid], in experiment [1] (oral gavage 10 mg/kg), the “any endpoint (redness, edema, discharge, itch/scratch, clinical score)” value is “failed to impact any endpoint”. For the same compound, the cummulative clinical score entry in experiment [1] (topical 300 ng/eye in PBS, days 21-23, after ocular antigen challenge, FIG. 3) was “significantly reduced”. Also, the itch/scratch response entry in experiment [1] (topical 300 ng/eye in PBS, days 21-23, first 30 minutes after challenge on day 23, FIG. 3) was “trend toward reduction”. In addition, in experiment [1] (setting [4]), the Ocular edema entry is reported as “trend toward reduction”, the discharge result is “significantly reduced” and the redness result is on record as “significantly reduced”. Besides, the cumulative clinical score result in experiment [2] (all parameters except squinting) is given as “significantly reduced”. Moreover, in experiment [2] (setting [5]), the chemosis entry was “significantly reduced”, the discharge result is “significantly reduced” and the lid swelling result is listed as “significantly reduced”. Besides, in experiment [3] (FIG. 4 (A)), the RSV eye pathology result is “reduced”. Besides, in experiment [3] (FIG. 4 (B)), the “eye IL4 induction” value is given as “reduced”.

For the origin of these results see patent US8785393B2, “Ophthalmic pharmaceutical compositions of DP2 receptor antagonists” (Panmira Pharmaceuticals, LLC, priority 2009, dated 2014).
